Measured values published in PMC5572576 (The Lancet. Oncology, 2017).
Where two headings read alike, the source gives them in different places. Marks after values point to notes of the source that are not given here.

Test system: patients with R/R AML
[1] = 120 mg, possibly related to treatment

## CCc1nc(C(N)=O)c(Nc2ccc(N3CCC(N4CCN(C)CC4)CC3)c(OC)c2)nc1NC1CCOCC1 [gilteritinib]
20 mg
  Deaths, primary cause AML: 3 n
20 mg, one death considered possibly related to treatment
  Deaths, primary cause Intracranial hemorrhage: 2 ^c n
40 mg
  Deaths, primary cause AML: 5 n
  Deaths, primary cause Multi-organ failure: 1 n
80 mg
  Deaths, primary cause AML: 5 n
  Deaths, primary cause Bacteremia/staphylococcal bacteremia: 2 n
  Deaths, primary cause Diabetic ketoacidosis: 1 n
  Deaths, primary cause Respiratory failure: 1 n
80 mg/d
  Treatment-related Grade ≥3 elevated AST: 1 n
  Treatment-related Grade ≥3 elevated alanine aminotransferase: 1 n
80 mg, one death considered possibly related to treatment
  Deaths, primary cause Septic shock: 2 ^c n
80 mg, possibly related to treatment
  Deaths, primary cause Hemoptysis: 1 ^b n
120 mg
  Deaths, primary cause AML: 10 n
  Deaths, primary cause Colitis/neutropenic colitis: 1 n
  Deaths, primary cause Death NOS: 2 n
  Deaths, primary cause Hepatic infection: 1 n
  Deaths, primary cause Multi-organ failure: 1 n
  Deaths, primary cause Pneumonia: 2 n
  Deaths, primary cause Respiratory failure: 1 n
  Deaths, primary cause Sepsis/staphylococcal sepsis: 1 n
120 mg/d
  Treatment-related Grade ≥3 diarrhea: 1 n
  Treatment-related Grade ≥3 elevated alanine aminotransferase: 1 n
[1]
  Deaths, primary cause Neutropenia: 1 ^b n
  Deaths, primary cause Ventricular fibrillation: 1 ^b n
200 mg
  Deaths, primary cause AML: 13 n
  Deaths, primary cause Anemia: 1 n
  Deaths, primary cause Bronchopulmonary aspergillosis: 1 n
  Deaths, primary cause Cardiac arrest: 1 n
  Deaths, primary cause Cellulitis: 1 n
  Deaths, primary cause Cerebrovascular ischemia: 1 n
  Deaths, primary cause Colitis/neutropenic colitis: 1 n
  Deaths, primary cause Death NOS: 1 n
  Deaths, primary cause Febrile neutropenia: 1 n
  Deaths, primary cause Hypoxia: 1 n
  Deaths, primary cause Intracranial hemorrhage: 1 n
  Deaths, primary cause Loss of consciousness: 1 n
  Deaths, primary cause Lung infection: 1 n
  Deaths, primary cause Multi-organ failure: 5 n
  Deaths, primary cause Pneumonia: 2 n
  Deaths, primary cause Renal failure: 1 n
  Deaths, primary cause Respiratory failure: 5 n
  Deaths, primary cause Sepsis/staphylococcal sepsis: 8 n
  Deaths, primary cause Septic shock: 2 n
  Deaths, primary cause Sudden death: 1 n
  Deaths, primary cause Ventricular tachycardia: 1 n
200 mg/d
  Treatment-related Grade ≥3 diarrhea: 2 n
  Treatment-related Grade ≥3 elevated AST: 3 n
  Treatment-related Grade ≥3 elevated alanine aminotransferase: 4 n
200 mg, possibly related to treatment
  Deaths, primary cause Pulmonary embolism: 1 ^b n
300 mg
  Deaths, primary cause AML: 5 n
  Deaths, primary cause Renal failure: 1 n
  Deaths, primary cause Respiratory failure: 1 n
300 mg/d
  Treatment-related Grade ≥3 elevated AST: 1 n
450 mg
  Deaths, primary cause Cardiac arrest: 1 n
Table 2
  Urinary tract infection, Grade 3: 12 (5%) n (%)
Doses up to 200mg
  Probability of experiencing a DLT: < 20%
human, in vivo
  AE associated with dose reductions: diarrhea: 1%
  AE associated with dose reductions: fatigue: 1%
  AE that led to study discontinuation: progressive disease: 6%
  AE that led to study discontinuation: sepsis: 3%
  Acute renal failure, Grade 1: 7 (3%) n (%)
  Acute renal failure, Grade 2: 9 (4%) n (%)
  Acute renal failure, Grade 3: 8 (3%) n (%)
  Acute renal failure, Grade 4: 1 (0·4%) n (%)
  Anemia, Grade 1: 1 (0·4%) n (%)
  Anemia, Grade 2: 23 (9%) n (%)
  Anemia, Grade 3: 55 (22%) n (%)
  Anemia, Grade 4: 6 (2%) n (%)
  Anemia, Grade 5: 1 (0·4%) n (%)
  Arthralgia, Grade 1: 19 (8%) n (%)
  Arthralgia, Grade 2: 8 (3%) n (%)
  Asthenia, Grade 1: 14 (6%) n (%)
  Asthenia, Grade 2: 10 (4%) n (%)
  Asthenia, Grade 3: 6 (2%) n (%)
  Atrial fibrillation, Grade 3: 5 (2%) n (%)
  Back pain, Grade 3: 5 (2%) n (%)
  Bacteremia, Grade 3: 13 (5%) n (%)
  Bacteremia, Grade 4: 3 (1·2%) n (%)
  Bacteremia, Grade 5: 1 (0·4%) n (%)
  Cellulitis, Grade 3: 7 (3%) n (%)
  Cellulitis, Grade 5: 1 (0·4%) n (%)
  Clostridium difficile colitis, Grade 3: 5 (2%) n (%)
  Constipation, Grade 1: 40 (16%) n (%)
  Constipation, Grade 2: 17 (7%) n (%)
  Cough, Grade 1: 40 (16%) n (%)
  Cough, Grade 2: 14 (6%) n (%)
  Decreased appetite, Grade 1: 12 (5%) n (%)
  Decreased appetite, Grade 2: 18 (7%) n (%)
  Decreased neutrophil count, Grade 2: 5 (2%) n (%)
  Decreased neutrophil count, Grade 3: 7 (3%) n (%)
  Decreased neutrophil count, Grade 4: 14 (6%) n (%)
  Decreased platelet count, Grade 1: 1 (0·4%) n (%)
  Decreased platelet count, Grade 2: 3 (1·2%) n (%)
  Decreased platelet count, Grade 3: 7 (3%) n (%)
  Decreased platelet count, Grade 4: 30 (12%) n (%)
  Decreased white blood cell count, Grade 3: 6 (2%) n (%)
  Decreased white blood cell count, Grade 4: 9 (4%) n (%)
  Diarrhea, Grade 1: 47 (19%) n (%)
  Diarrhea, Grade 2: 32 (13%) n (%)
  Diarrhea, Grade 3: 13 (5%) n (%)
  Dizziness, Grade 1: 36 (14%) n (%)
  Dizziness, Grade 2: 11 (4%) n (%)
  Drug-related TEAEs leading to discontinuation: 10%
  Dysgeusia, Grade 1: 23 (9%) n (%)
  Dysgeusia, Grade 2: 4 (1·6%) n (%)
  Dyspnea, Grade 1: 29 (12%) n (%)
  Dyspnea, Grade 2: 18 (7%) n (%)
  Dyspnea, Grade 3: 11 (4%) n (%)
  Dyspnea, Grade 4: 1 (0.4%) n (%)
  Edema peripheral, Grade 1: 43 (17%) n (%)
  Edema peripheral, Grade 2: 21 (8%) n (%)
  Edema peripheral, Grade 3: 3 (1.2%) n (%)
  Elevated ALT, Grade 1: 25 (10%) n (%)
  Elevated ALT, Grade 2: 9 (4%) n (%)
  Elevated ALT, Grade 3: 13 (5%) n (%)
  Elevated AST, Grade 1: 33 (13%) n (%)
  Elevated AST, Grade 2: 18 (7%) n (%)
  Elevated AST, Grade 3: 14 (6%) n (%)
  Elevated AST, Grade 4: 1 (0·4%) n (%)
  Elevated blood alkaline phosphatase, Grade 1: 28 (11%) n (%)
  Elevated blood alkaline phosphatase, Grade 2: 5 (2%) n (%)
  Elevated blood bilirubin, Grade 3: 6 (2%) n (%)
  Elevated blood bilirubin, Grade 4: 1 (0·4%) n (%)
  Elevated blood creatinine, Grade 1: 23 (9%) n (%)
  Elevated blood creatinine, Grade 2: 12 (5%) n (%)
  Elevated blood phosphocreatine kinase, Grade 1: 7 (3%) n (%)
  Elevated blood phosphocreatine kinase, Grade 2: 7 (3%) n (%)
  Elevated blood phosphocreatine kinase, Grade 3: 7 (3%) n (%)
